Molecules are shown by their SMILES. Read-outs that look alike come from different tables or passages of the source.

Series [1] deals with T1, Tyro3 (Homo sapiens, UniProt Q06418).
T1 sequence (Q06418 41-890): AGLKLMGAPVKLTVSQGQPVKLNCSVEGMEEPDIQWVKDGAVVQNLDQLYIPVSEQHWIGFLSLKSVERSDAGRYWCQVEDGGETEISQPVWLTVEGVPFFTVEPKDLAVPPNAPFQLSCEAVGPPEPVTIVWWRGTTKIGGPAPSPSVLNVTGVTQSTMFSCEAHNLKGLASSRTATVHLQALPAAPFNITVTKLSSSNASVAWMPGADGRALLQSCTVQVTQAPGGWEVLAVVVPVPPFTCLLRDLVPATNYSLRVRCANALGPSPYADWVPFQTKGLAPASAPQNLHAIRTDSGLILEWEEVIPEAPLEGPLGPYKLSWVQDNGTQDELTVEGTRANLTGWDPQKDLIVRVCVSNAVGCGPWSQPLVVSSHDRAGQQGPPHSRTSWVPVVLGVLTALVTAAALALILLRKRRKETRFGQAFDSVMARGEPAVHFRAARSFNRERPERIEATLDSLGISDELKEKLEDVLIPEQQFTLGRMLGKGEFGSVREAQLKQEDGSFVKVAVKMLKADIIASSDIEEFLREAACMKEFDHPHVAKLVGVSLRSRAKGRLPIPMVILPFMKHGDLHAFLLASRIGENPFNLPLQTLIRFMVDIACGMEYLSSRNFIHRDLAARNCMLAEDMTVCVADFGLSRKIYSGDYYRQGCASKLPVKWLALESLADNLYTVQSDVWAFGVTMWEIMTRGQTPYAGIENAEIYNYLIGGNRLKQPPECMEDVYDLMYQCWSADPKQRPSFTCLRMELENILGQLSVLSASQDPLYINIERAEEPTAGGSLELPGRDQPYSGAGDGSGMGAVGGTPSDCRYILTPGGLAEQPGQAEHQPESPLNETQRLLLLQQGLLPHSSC
The series is described as follows: Microfluidic capillary electrophoresis. Format: biochemical.

In series [2] the target is T2, Axl (Homo sapiens, UniProt P30530).
T2 sequence (P30530 26-894): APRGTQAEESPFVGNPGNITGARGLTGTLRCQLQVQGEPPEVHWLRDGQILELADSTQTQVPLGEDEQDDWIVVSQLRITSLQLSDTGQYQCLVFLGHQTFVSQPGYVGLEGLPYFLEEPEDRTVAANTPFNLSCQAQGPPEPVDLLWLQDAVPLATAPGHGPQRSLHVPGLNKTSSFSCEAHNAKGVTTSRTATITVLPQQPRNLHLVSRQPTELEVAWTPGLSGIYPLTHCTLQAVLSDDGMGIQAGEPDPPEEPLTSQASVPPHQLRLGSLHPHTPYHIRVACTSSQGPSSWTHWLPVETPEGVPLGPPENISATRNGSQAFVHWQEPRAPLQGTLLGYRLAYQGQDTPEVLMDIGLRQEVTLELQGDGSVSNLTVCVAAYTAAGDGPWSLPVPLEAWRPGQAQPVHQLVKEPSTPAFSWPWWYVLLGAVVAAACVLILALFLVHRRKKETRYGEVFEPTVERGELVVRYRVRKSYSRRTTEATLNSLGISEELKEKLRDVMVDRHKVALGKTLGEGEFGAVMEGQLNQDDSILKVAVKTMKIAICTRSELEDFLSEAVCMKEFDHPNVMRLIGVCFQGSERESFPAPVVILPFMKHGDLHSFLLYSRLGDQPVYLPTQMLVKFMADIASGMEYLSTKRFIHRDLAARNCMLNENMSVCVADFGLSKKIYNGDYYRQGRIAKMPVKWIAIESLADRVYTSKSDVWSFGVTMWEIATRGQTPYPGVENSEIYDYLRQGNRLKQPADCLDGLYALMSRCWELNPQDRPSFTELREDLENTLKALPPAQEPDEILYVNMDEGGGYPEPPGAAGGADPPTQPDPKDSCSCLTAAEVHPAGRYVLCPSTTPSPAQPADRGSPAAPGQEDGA
The series is described as follows: Microfluidic capillary electrophoresis. In kind it is biochemical.

Series [3] has as its target T3, Mer (Homo sapiens, UniProt Q12866).
T3 sequence (Q12866 21-999): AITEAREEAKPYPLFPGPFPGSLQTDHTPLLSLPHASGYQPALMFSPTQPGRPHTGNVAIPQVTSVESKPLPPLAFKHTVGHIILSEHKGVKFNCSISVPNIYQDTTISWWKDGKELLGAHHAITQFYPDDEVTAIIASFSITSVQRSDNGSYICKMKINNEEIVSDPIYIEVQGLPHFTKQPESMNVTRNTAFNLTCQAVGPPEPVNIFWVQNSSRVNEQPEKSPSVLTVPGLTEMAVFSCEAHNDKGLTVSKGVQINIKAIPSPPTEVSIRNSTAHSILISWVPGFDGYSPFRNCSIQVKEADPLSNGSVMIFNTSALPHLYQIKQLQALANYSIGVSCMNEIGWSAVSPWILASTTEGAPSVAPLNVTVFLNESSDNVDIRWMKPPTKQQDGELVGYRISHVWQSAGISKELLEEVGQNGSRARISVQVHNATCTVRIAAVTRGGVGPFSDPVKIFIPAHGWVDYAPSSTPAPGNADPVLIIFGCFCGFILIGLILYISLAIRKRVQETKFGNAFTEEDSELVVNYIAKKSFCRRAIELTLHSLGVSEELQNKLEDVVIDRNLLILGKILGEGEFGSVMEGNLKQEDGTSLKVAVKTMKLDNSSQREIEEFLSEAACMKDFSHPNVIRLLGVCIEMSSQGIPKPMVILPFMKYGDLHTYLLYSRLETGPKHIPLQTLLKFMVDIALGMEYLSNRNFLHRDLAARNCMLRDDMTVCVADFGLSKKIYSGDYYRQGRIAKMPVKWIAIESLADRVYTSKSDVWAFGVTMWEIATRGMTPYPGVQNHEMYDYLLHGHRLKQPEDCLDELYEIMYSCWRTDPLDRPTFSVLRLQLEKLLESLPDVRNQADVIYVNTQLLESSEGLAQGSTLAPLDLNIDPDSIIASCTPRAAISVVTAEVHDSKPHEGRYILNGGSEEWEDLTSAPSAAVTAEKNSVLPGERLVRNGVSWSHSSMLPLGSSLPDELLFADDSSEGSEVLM
The series is described as follows: Microfluidic capillary electrophoresis. Format: biochemical.

Series [4] addresses hERG channel (Homo sapiens, UniProt Q12809). The series is described as follows: hERG PatchXpress assay / hERG binding assay. As to conditions: read-out: hERG EC50.
Series [5] deals with A549 cells. The series is described as follows: Soft agar colony formation assay, A549. As to conditions: 2 weeks.
In series [6] the test system is Colo699 cells. The series is described as follows: Soft agar colony formation assay, Colo699. As to conditions: 2 weeks.

hERG channel, sequence (Q12809 whole entry): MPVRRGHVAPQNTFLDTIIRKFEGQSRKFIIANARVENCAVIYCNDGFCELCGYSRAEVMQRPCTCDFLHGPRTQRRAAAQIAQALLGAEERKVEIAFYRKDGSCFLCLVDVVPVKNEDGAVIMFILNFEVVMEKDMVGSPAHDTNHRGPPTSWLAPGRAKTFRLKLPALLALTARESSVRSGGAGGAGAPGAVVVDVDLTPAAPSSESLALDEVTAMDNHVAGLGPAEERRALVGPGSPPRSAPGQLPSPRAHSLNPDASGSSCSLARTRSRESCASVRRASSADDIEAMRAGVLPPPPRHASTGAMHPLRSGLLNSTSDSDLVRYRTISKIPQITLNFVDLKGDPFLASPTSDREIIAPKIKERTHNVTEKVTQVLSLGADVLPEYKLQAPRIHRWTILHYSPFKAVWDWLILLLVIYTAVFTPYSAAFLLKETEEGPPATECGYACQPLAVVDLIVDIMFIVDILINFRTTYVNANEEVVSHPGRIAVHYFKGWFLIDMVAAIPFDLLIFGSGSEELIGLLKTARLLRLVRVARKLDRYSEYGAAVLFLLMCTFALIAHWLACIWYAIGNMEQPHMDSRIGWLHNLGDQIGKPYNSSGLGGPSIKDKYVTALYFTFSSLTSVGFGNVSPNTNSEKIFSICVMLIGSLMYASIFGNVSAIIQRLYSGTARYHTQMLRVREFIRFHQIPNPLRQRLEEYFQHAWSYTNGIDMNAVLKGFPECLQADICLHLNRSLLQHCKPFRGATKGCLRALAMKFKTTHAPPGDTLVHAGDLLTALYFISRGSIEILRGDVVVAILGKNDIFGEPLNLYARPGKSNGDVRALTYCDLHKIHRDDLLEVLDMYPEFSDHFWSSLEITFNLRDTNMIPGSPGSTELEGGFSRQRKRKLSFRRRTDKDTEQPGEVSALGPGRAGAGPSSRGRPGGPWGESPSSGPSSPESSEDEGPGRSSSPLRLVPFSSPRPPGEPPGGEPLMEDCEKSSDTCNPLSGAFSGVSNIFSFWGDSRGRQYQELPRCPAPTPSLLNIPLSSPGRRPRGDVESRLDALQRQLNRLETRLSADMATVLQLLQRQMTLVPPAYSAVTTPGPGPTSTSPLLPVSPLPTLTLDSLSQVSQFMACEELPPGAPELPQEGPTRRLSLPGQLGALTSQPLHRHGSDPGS

By IC50 is commonly meant the point on the concentration scale where inhibition reaches its midpoint. Regarding `CCCCNc1ncc2c(-c3ccc(S(=O)(=O)NC(C)C)cc3)nn([C@H]3CC[C@H](O)CC3)c2n1` [Compound 22, trans-4-(6-(Butylamino)-1-(4-hydroxycyclohexyl)-1H-pyrazolo[3,4-d]pyrimidin-3-yl)-N-isopropylbenzenesulfonamide], the values for the 50% inhibitory concentration (IC50) in series [1] and in series [2] were 68 nM and 120 nM, respectively.
Regarding `CCCCNc1ncc2c(-c3ccc(S(=O)(=O)N4CCCC4)cc3)nn([C@H]3CC[C@H](O)CC3)c2n1` [Compound 34, trans-4-(6-(Butylamino)-3-(4-(pyrrolidin-1-ylsulfonyl)phenyl)-1H-pyrazolo[3,4-d]pyrimidin-1-yl)cyclohexanol], the concentration for half-maximal inhibition (IC50) came out at 0.65 nM in series [3] (read-out: IC50 Mer, ATP at Km, mean of two or more independent assays); 22 nM in series [1] (read-out: IC50 Tyro3, ATP at Km, mean of two or more independent assays); 46 nM in series [2] (read-out: IC50 Axl, ATP at Km, mean of two or more independent assays).
As for `CCCCNc1ncc2c(-c3ccc(S(=O)(=O)NC4CCCCC4)cc3)nn([C@H]3CC[C@H](O)CC3)c2n1` [Compound 25, trans-4-(6-(Butylamino)-1-(4-hydroxycyclohexyl)-1H-pyrazolo[3,4-d]pyrimidin-3-yl)-N-cyclohexylbenzenesulfonamide], the values for the IC50 in series [1] and in series [2] were 45 nM and 350 nM, respectively.
With `CCCCNc1ncc2c(-c3ccc(S(=O)(=O)N4CCC(C(=O)N5CCOCC5)CC4)cc3)nn([C@H]3CC[C@H](O)CC3)c2n1` [Compound 36, trans-(1-((4-(6-(Butylamino)-1-(4-hydroxycyclohexyl)-1H-pyrazolo[3,4-d]pyrimidin-3-yl)phenyl)sulfonyl)piperidin-4-yl)(morpholino)methanone], the half-maximal inhibitory concentration (IC50) in series [3] turned out to be 1.4 nM; in series [1] it was 76 nM; in series [2], 23 nM.
For the molecule `CCCCNc1ncc2c(-c3ccc(S(N)(=O)=O)cc3)nn([C@H]3CC[C@H](O)CC3)c2n1` [Compound 20, trans-4-(6-(Butylamino)-1-(4-hydroxycyclohexyl)-1H-pyrazolo[3,4-d]pyrimidin-3-yl)benzenesulfonamide], the half-inhibitory concentration (IC50) in series [3] was found to be 1.4 nM; in series [1] it was 54 nM; in series [2] it was 29 nM.
As for `CCCCNc1ncc2c(-c3ccc(NS(C)(=O)=O)cc3)nn([C@H]3CC[C@H](O)CC3)c2n1` [Compound 18, trans-N-(4-(6-(Butylamino)-1-(4-hydroxycyclohexyl)-1H-pyrazolo[3,4-d]pyrimidin-3-yl)phenyl)methanesulfonamide], the 50% inhibitory concentration (IC50) came to 35 nM in series [1] and 110 nM in series [2].
For `CCCCNc1ncc2c(-c3ccc(S(=O)(=O)NC)cc3)nn(C[C@H]3CC[C@H](N)CC3)c2n1` [Compound 2, 4-(1-((trans-4-Aminocyclohexyl)methyl)-6-(butylamino)-1H-pyrazolo[3,4-d]pyrimidin-3-yl)-N-methylbenzenesulfonamide], in that order: 27 nM and 59 nM.
For `CCCCNc1ncc2c(-c3ccc(S(=O)(=O)NC)cc3)nn(C[C@H]3CC[C@H](O)CC3)c2n1` [Compound 7, 4-(1-((trans-4-Hydroxycyclohexyl)methyl)-6-(butylamino)-1H-pyrazolo[3,4-d]pyrimidin-3-yl)-N-methylbenzenesulfonamide], in that order: 130 nM and 140 nM.
On the same counts, the results for `CCCCNc1ncc2c(-c3ccc(S(=O)(=O)NC4CCCC4)cc3)nn([C@H]3CC[C@H](O)CC3)c2n1` [Compound 24, trans-4-(6-(Butylamino)-1-(4-hydroxycyclohexyl)-1H-pyrazolo[3,4-d]pyrimidin-3-yl)-N-cyclopentylbenzenesulfonamide] are 31 nM and 67 nM.
By EC50 is commonly meant the concentration needed to bring the measured effect to its halfway point. Regarding `CCCCNc1ncc2c(-c3ccc(F)cc3)nn(CC3CCC(N)CC3)c2n1` (stereo not drawn) [UNC569], in series [4], the half-maximal effective concentration (EC50) came to 1700 nM.
For the molecule `CCCCNc1ncc2c(-c3ccc(S(=O)(=O)NC4CCOCC4)cc3)nn([C@H]3CC[C@H](O)CC3)c2n1` [Compound 26, trans-4-(6-(Butylamino)-1-(4-hydroxycyclohexyl)-1H-pyrazolo[3,4-d]pyrimidin-3-yl)-N-(tetrahydro-2H-pyran-4-yl)benzenesulfonamide], the IC50 was found to be 28 nM in series [1] and 69 nM in series [2].
On the same counts, the results for `CCCCNc1ncc2c(-c3ccc(S(=O)(=O)NCCC)cc3)nn([C@H]3CC[C@H](O)CC3)c2n1` [Compound 21, trans-4-(6-(Butylamino)-1-(4-hydroxycyclohexyl)-1H-pyrazolo[3,4-d]pyrimidin-3-yl)-N-propylbenzenesulfonamide] are 35 nM and 62 nM.
Consider `CCCCNc1ncc2c(-c3ccc(S(=O)(=O)Nc4ccc(F)cc4)cc3)nn([C@H]3CC[C@H](O)CC3)c2n1` [Compound 27, trans-4-(6-(Butylamino)-1-(4-hydroxycyclohexyl)-1H-pyrazolo[3,4-d]pyrimidin-3-yl)-N-(4-fluorophenyl)benzenesulfonamide], for which the IC50 came to 290 nM in series [1] and 6500 nM in series [2].
Take `CCCCNc1ncc2c(-c3ccc(S(=O)(=O)N4CCOCC4)cc3)nn([C@H]3CC[C@H](O)CC3)c2n1` [Compound 35, trans-4-(6-(Butylamino)-3-(4-(morpholinosulfonyl)phenyl)-1H-pyrazolo[3,4-d]pyrimidin-1-yl)cyclohexanol]: the “colony formation in soft agar” value in series [5] and in series [6] was “inhibited colony formation” each time.
